Test results from PubChem BioAssay AID977605 (Broad Institute, 2014).
Calls of active or inactive are those of the source.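 Rule for the calls: active = fitted curve reaches 40% activation below the top valid tested dose, in every test run; inconclusive = test runs disagree on the call; inactive = the rest, including effects opposite to the expected direction.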

What was measured:
[1] = system: HUVEC E-selectin immunostaining, imaging, 16 h; experiment: endothelial E-selectin upregulation by compounds – imaging, HUVEC, cherry-picked samples, dose response (AID 977605);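 note: signal is the share of imaged cells scored positive for E-selectin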
[2] = as above; details: HUVEC E-selectin immunostaining, percent of TNF-alpha response over vehicle

SMILES	AC40 [1] [µM]	activation ([2]; at 19.5 µM (top of the series))	also measured
COc1ccc(CNC(=O)c2cc3c(c(-c4cccc(-c5cccc(C#N)c5)c4)n2)[C@H](CCO)N([S@@](=O)C(C)(C)C)C3)cc1	19.4		
COc1ccc(NC(=O)N(C)C[C@H]2Oc3ccc(NS(=O)(=O)c4cccs4)cc3C(=O)N([C@H](C)CO)C[C@@H]2C)cc1	17.7		
Cc1cc(C)c(S(=O)(=O)NCCn2c(C)cc3ccccc32)c(C)c1	14.3		
Cc1cc2cc(CNC(=O)Nc3ccc(Cl)c(Cl)c3)ccc2n1C	10.1		
COc1cccc(CNC(=O)c2cc3c(c(-c4cccc(-c5ccc(C#N)cc5)c4)n2)[C@H](CCO)N([S@@](=O)C(C)(C)C)C3)c1	14.7		
Cc1cccc(NC(=O)NCc2ccc3c(c2)cc(C)n3C)c1	12		
Cc1cccc(-c2cc(N3CCCN(C)CC3)n3nccc3n2)c1	5.24		
COc1ccc(S(=O)(=O)N(C)C[C@@H]2OCCCC[C@H](C)Oc3ccc(NC(=O)Nc4cccc5ccccc45)cc3C(=O)N([C@H](C)CO)C[C@H]2C)cc1	17.7		
COc1ccc(Nc2ccccc2N)cc1	5.67		
O=C(C[C@@H]1CC[C@H]2[C@@H](COC[C@H](O)CN2C(=O)c2ccc(F)cc2)O1)Nc1ccc(-c2ccccc2)cc1	8		
CC(C)(C)[S@](=O)N1Cc2cc(C(=O)N[C@H]3CCN(Cc4ccccc4)C3)nc(-c3cccc(-c4ccncc4)c3)c2[C@@H]1CCO	13.2		
Cc1cc2cc(CNC(=O)Nc3cccc(Cl)c3)ccc2n1C	10.8		
FC(F)(F)c1ccc2c(c1)N1CCCC1CN2 (centres undefined)	7.71		
Cc1cc2ccccc2n1CCNC(=O)COc1ccc2ccccc2c1	11.3		
CO[C@@H]1CN(C)C(=O)c2ccc(NC(=O)Nc3ccc(F)cc3)cc2OC[C@@H](C)N(C(=O)c2ccc(F)cc2)C[C@H]1C	12.4		
Cc1cc2c(SCc3ccccc3Cl)nc(N)nc2nc1C	11.4		
O=C(COC(=O)CCC(=O)c1ccc(F)cc1)Nc1cccc(S(=O)(=O)N2CCCC2)c1		2.61% (inactive)	
Cc1cc(C)cc(NC(=O)Nc2ccc(-n3ccc(C(F)(F)F)n3)cc2)c1		0.075% (inactive)	
COc1ccc(CN(C)C[C@H]2Oc3c(NC(=O)c4cnccn4)cccc3C(=O)N([C@H](C)CO)C[C@@H]2C)cc1		0.248% (inactive)	
COc1ccc(-c2nnc3n2CCCCC3)cc1OC		0.027% (inactive)	
C[C@@H]1CN([C@H](C)CO)C(=O)c2cccc(NC(=O)Nc3ccc(F)cc3)c2O[C@@H]1CN(C)S(=O)(=O)c1cn(C)cn1		-0.066% (inactive)	
Cc1ccc(S(=O)(=O)NCc2ccc3c(c2)cc(C)n3C)cc1	13.6		

SMILES	AC40 [1] [µM]	activation ([2]; at 19.5 µM (top of the series))	also measured
Cc1[nH]c(C)c(S(=O)(=O)N2CCCCC2)c1C(=O)N1CCCC1		-0.044% (inactive)	
O=C1Nc2ccccc2C1Cc1ccccn1 (centres undefined)		-0.092% (inactive)	
O=C(O)CCC(=O)NCC(=O)c1ccc(F)cc1		-0.239% (inactive)	
CS(=O)(=O)N1CCc2cc(C(=O)NC3CC3)ccc21		0.099% (inactive)	
CCCN(C)C[C@@H]1Oc2ncc(-c3ccccc3)cc2C(=O)N([C@H](C)CO)C[C@@H]1C		-0.269% (inactive)	
C[C@H]1CN([C@@H](C)CO)C(=O)Cc2cc(NC(=O)NC3CCCCC3)ccc2O[C@@H]1CN(C)Cc1ccc(Cl)c(Cl)c1		0.088% (inactive)	
Oc1cccc(Oc2ncc(C(F)(F)F)cc2Cl)c1		-0.09% (inactive)	
C[C@H]1CN([C@@H](C)CO)C(=O)c2cc(NS(C)(=O)=O)ccc2O[C@@H]1CN(C)Cc1ccc(Cl)c(Cl)c1		-0.025% (inactive)	
COc1cccc(CCC(=O)N2CCC(n3nccc3NC(=O)CC(C)C)CC2)c1		-0.002% (inactive)	
C[C@H](CO)N1C[C@H](C)[C@@H](CN(C)Cc2ccccc2)Oc2c(NC(=O)C3CC3)cccc2C1=O		-0.084% (inactive)	
Cc1ccc(N2C(=O)[C@@H]3C(c4cccnc4)=NO[C@@H]3C2=O)c(C)c1		0.363% (inactive)	
CN(C)CCN1CCN(C2CN(Cc3cn(Cc4ccc(C(F)(F)F)cc4)nn3)S(=O)(=O)C2)CC1 (centres undefined)		1.57% (inactive)	
O=C(C1CCCN(c2nnc(-n3cccc3)s2)C1)N1CCN(c2ccccc2)CC1 (centres undefined)		0.14% (inactive)	
C[C@@H]1CN([C@H](C)CO)C(=O)c2cccc(NC(=O)C3CCOCC3)c2O[C@H]1CN(C)C(=O)Nc1ccccc1			activation ([2]; at 21 µM (top of the series)): -0.271% (inactive)
CC(C)NC(=O)Nc1ccc2c(c1)CC(=O)N([C@@H](C)CO)C[C@H](C)[C@H](CN(C)Cc1ccc(C(=O)O)cc1)O2		0.025% (inactive)	
CC(Sc1ncnc2sc(-c3ccccc3)cc12)C(=O)N1CCNC1=O (centres undefined)		0.007% (inactive)	
C[C@H](CO)N1C[C@H](C)[C@@H](CN(C)S(=O)(=O)c2ccc(F)cc2)Oc2ccc(NS(C)(=O)=O)cc2CC1=O			activation ([2]; at 21 µM (top of the series)): 0.279% (inactive)
CCC(=O)N(C)C[C@H]1Oc2ncc(Br)cc2C(=O)N([C@@H](C)CO)C[C@H]1C		-0.195% (inactive)	
C[C@H](CO)N1C[C@H](C)[C@@H](CN(C)S(=O)(=O)c2ccc(Cl)cc2)Oc2ccc(NS(=O)(=O)c3ccc(F)cc3)cc2CC1=O		-0.113% (inactive)	
CC1CCN(c2nc3c(=O)[nH]c(N)nc3n2[C@@H]2O[C@H](CO)[C@@H](O)[C@H]2O)CC1		0.131% (inactive)	
CC(C)NC(=O)N(C)C[C@H]1Oc2ccc(NC(=O)CCN3CCOCC3)cc2C(=O)N([C@H](C)CO)C[C@@H]1C			activation ([2]; at 21 µM (top of the series)): 0.008% (inactive)
Cc1cc(C(=O)Nc2cccc3c2O[C@H](CN(C)C(=O)NC2CCCCC2)[C@@H](C)CN([C@@H](C)CO)C3=O)n(C)n1		-0.268% (inactive)	
